According to article PMC11823609, “Advancements in the fight against globally distributed OXA-48 carbapenemase: evaluating the new generation of carbapenemase inhibitors” (Antimicrobial Agents and Chemotherapy, 2025):
In brackets after ≈: the same amount, converted by molar mass. Like-named read-outs stand apart in the source and are kept apart here.

Legend:
[1] = test system: E. coli HB4 ΔompC/F (OXA-48); test: microbe, parasite or virus in culture; format: cell-based, Escherichia coli; conditions: Escherichia coli
Excerpt: (§1) The E. coli HB4 strain was used to gain a more complete perspective, by evaluating the involvement in resistance of a low permeability background with the carbapenemase OXA-48, as well as coproduction of an ESBL and the carbapenemase; thus, the ESBL CTX-M-14 and OXA-48 were cloned together and separately into E. coli HB4. The characteristics of these strains and transformants are summarized in Table S1, and the cloning procedures are outlined in the supplemental methods.
(§2) The MICs of each of the individual compounds (antibiotics or inhibitors) were also determined. The MICs were determined for the E. coli isogenic expressing OXA-48 (and both OXA-48 and CTX-M-14) to assess their activity against the carbapenemase; MICs were also determined for the 18 Enterobacterales clinical isolates in order to evaluate the new inhibitors against also their resistance concomitant mechanisms. The MICs were determined in triplicate experiments, and the EUCAST 13.0 clinical breakpoints were followed (http://www.eucast.org/clinical_breakpoints).
(§3) For comparative evaluation of the activity of each inhibitor alone against the carbapenemase OXA-48, all inhibitors (at 4 mg/L) were tested in the presence of a carbapenem (ertapenem, adequate substrate) and a cephalosporin (ceftazidime, poor substrate) as reporter substrates. This prevented any possible masking effect produced by the different partner antibiotics. These assays were also performed with isogenic transformants and clinical isolates.

[2] = test system: E. coli HB4 ΔompC/F (CTX-M-14); test: microbe, parasite or virus in culture; format: cell-based, Escherichia coli; conditions: Escherichia coli
Excerpt: as §1, §2, §3

E. coli HB4 ΔompC/F = test: microbe, parasite or virus in culture; format: cell-based, Escherichia coli; conditions: Escherichia coli
Excerpt: as §1, §2, §3

[3] = test system: E. coli HB4 ΔompC/F (CTX-M-14 + OXA-48); test: microbe, parasite or virus in culture; format: cell-based, Escherichia coli; conditions: Escherichia coli
Excerpt: as §1, §2, §3

E. coli TG1 (OXA-48) = test: microbe, parasite or virus in culture; format: cell-based, Escherichia coli; conditions: Escherichia coli
Protocol: as §2, §3

E. coli TG1 = test: microbe, parasite or virus in culture; format: cell-based; conditions: Escherichia coli
Protocol: as §2, §3

[4] = test system: K. pneumoniae strain 23 (MLST 392, ESBL); test: microbe, parasite or virus in culture; format: cell-based; conditions: Klebsiella pneumoniae
Protocol: (§4) The efficacy of these new BLIs was also evaluated against 18 genetically diverse WGS-characterized collection of OXA-48-positive Enterobacterales recovered as part of the Carbapenem-resistant Enterobacterales Genome Database Project (https://genomes.cnag.cat/incredble) listed in Table S2 ([13]). Combinations of clinical isolates (five pairs of Klebsiella pneumoniae, two pairs of Enterobacter cloacae, and two pairs of E. coli) were chosen for analysis: (i) nine strains carrying ESBLs; and (ii) nine strains (genetically closer available strains) without ESBLs.
as §2, §3

[5] = test system: E. cloacae strain 235 (MLST 171, ESBL); test: microbe, parasite or virus in culture; format: cell-based; conditions: Enterobacter cloacae
Protocol: as §4, §2, §3

[6] = test system: K. pneumoniae strain 125 (MLST 307, ESBL); test: microbe, parasite or virus in culture; format: cell-based; conditions: Klebsiella pneumoniae
Protocol: as §4, §2, §3

[7] = test system: K. pneumoniae strain 71 (MLST 15, No ESBL); test: microbe, parasite or virus in culture; format: cell-based; conditions: Klebsiella pneumoniae, K. pneumoniae 71, read-out: MIC
Protocol: as §4, §2, §3

[8] = test system: K. pneumoniae strain 497 (MLST 11, No ESBL); test: microbe, parasite or virus in culture; format: cell-based; conditions: Klebsiella pneumoniae, K. pneumoniae 497, read-out: MIC
Protocol: as §4, §2, §3

[9] = test system: K. pneumoniae strain 19 (MLST 11, ESBL); test: microbe, parasite or virus in culture; format: cell-based; conditions: Klebsiella pneumoniae
Protocol: as §4, §2, §3

[10] = test system: E. coli strain 224 (MLST 127, No ESBL); test: microbe, parasite or virus in culture; format: cell-based; conditions: Escherichia coli, E. coli 224, read-out: MIC
Protocol: as §4, §2, §3

[11] = test system: K. pneumoniae strain 413 (MLST 147, ESBL); test: microbe, parasite or virus in culture; format: cell-based; conditions: Klebsiella pneumoniae
Protocol: as §4, §2, §3

[12] = test system: E. coli strain 177 (MLST 131, ESBL); test: microbe, parasite or virus in culture; format: cell-based; conditions: Escherichia coli
Protocol: as §4, §2, §3

[13] = test system: K. pneumoniae strain 194 (MLST 392, No ESBL); test: microbe, parasite or virus in culture; format: cell-based; conditions: Klebsiella pneumoniae, K. pneumoniae 194, read-out: MIC
Protocol: as §4, §2, §3

[14] = test system: E. coli strain 264 (MLST 131, No ESBL); test: microbe, parasite or virus in culture; format: cell-based; conditions: Escherichia coli, E. coli 264, read-out: MIC
Protocol: as §4, §2, §3

[15] = test system: E. cloacae strain 272 (MLST 78, ESBL); test: microbe, parasite or virus in culture; format: cell-based; conditions: Enterobacter cloacae
Protocol: as §4, §2, §3

[16] = test system: E. cloacae strain 281 (MLST 78, No ESBL); test: microbe, parasite or virus in culture; format: cell-based; conditions: Enterobacter cloacae, E. cloacae 281, read-out: MIC
Protocol: as §4, §2, §3

[17] = test system: K. pneumoniae strain 237 (MLST 147, No ESBL); test: microbe, parasite or virus in culture; format: cell-based; conditions: Klebsiella pneumoniae, K. pneumoniae 237, read-out: MIC
Protocol: as §4, §2, §3

[18] = test system: E. cloacae strain 231 (MLST 171, No ESBL); test: microbe, parasite or virus in culture; format: cell-based; conditions: Enterobacter cloacae, E. cloacae 231, read-out: MIC
Protocol: as §4, §2, §3

[19] = test system: E. coli strain 103 (MLST 10, ESBL); test: microbe, parasite or virus in culture; format: cell-based; conditions: Escherichia coli
Protocol: as §4, §2, §3

[20] = test system: K. pneumoniae strain 170 (MLST 307, No ESBL); test: microbe, parasite or virus in culture; format: cell-based; conditions: Klebsiella pneumoniae, K. pneumoniae 170, read-out: MIC
Protocol: as §4, §2, §3

[21] = test system: K. pneumoniae strain 238 (MLST 15, ESBL); test: microbe, parasite or virus in culture; format: cell-based; conditions: Klebsiella pneumoniae
Protocol: as §4, §2, §3

[22] = test system: OXA-48-producing Enterobacterales clinical isolates; test: MIC summary over clinical isolates; format: cell-based
Protocol: as §4, §2, §3

[23] = BL alone or BL/BLI: AVI, REL, TAN, DUR 4 mg/L, VAB, XER 8 mg/L, ZID, NAC 1:1
[24] = ertapenem alone or with BLI at 4 mg/L

SMILES	MIC [1] [µg/mL]	MIC [2] [µg/mL]	MIC (E. coli HB4 ΔompC/F) [µg/mL]	MIC [3] [µg/mL]	MIC (E. coli TG1 (OXA-48)) [µg/mL]	MIC (E. coli TG1; [23]) [µg/mL]	MIC [4] [µg/mL]	MIC [5] [µg/mL]	MIC [6] [µg/mL]	MIC [7, 23] [µg/mL]	MIC [8, 23] [µg/mL]	MIC [9] [µg/mL]	MIC [10, 23] [µg/mL]	MIC [11] [µg/mL]	MIC [12] [µg/mL]	MIC [13, 23] [µg/mL]	MIC [15] [µg/mL]	MIC [17, 23] [µg/mL]	MIC [19] [µg/mL]	MIC [20, 23] [µg/mL]	also measured
CC1(C)[C@H](C(=O)O)N2C(=O)C[C@H]2S1(=O)=O [SUL, sulbactam]	64 (≈ 274 µM)	32 (≈ 137 µM)	32 (≈ 137 µM)	64 (≈ 274 µM)	32 (≈ 137 µM)	32 (≈ 137 µM)	128	≥ 256	64	128	128	64	128	128	64	64	128	64	64	64	MIC [14, 23]: 64 µg/mL; MIC [16, 23]: 128 µg/mL; MIC [18, 23]: 64 µg/mL; MIC [21]: 128 µg/mL; MIC [22]: ≥ 64 µg/mL
CO/N=C(\C(=O)N[C@@H]1C(=O)N2C(C(=O)[O-])=C(C[N+]3(C)CCCC3)CS[C@H]12)c1csc(N)n1 [FEP, cefepime]	–	–	1 (≈ 2.08 µM)	–	≤ 0.06	≤ 0.06	32	–	–	0.5	0.5	–	0.5	128	≥ 256	0.25	–	0.5	–	0.25	–
C[C@@H](O)[C@H]1C(=O)N2C(C(=O)O)=C(S[C@@H]3CN[C@H](C(=O)Nc4cccc(C(=O)O)c4)C3)[C@H](C)[C@H]12 [ERT, ertapenem]	32 (≈ 67.3 µM)	0.5 (≈ 1.05 µM)	0.12 (≈ 0.252 µM)	32 (≈ 67.3 µM)	1 (≈ 2.1 µM)	–	4	≥ 256	8	–	–	4	–	≥ 256	4	–	16	–	4	–	MIC (E. coli TG1; [24]): ≤ 0.06 µg/mL; MIC [7, 24]: 8 µg/mL; MIC [8, 24]: 8 µg/mL; MIC [10, 24]: 2 µg/mL; MIC [13, 24]: 4 µg/mL; MIC [14, 24]: 4 µg/mL; MIC [16, 24]: 4 µg/mL; MIC [17, 24]: 4 µg/mL; MIC [18, 24]: 8 µg/mL; MIC [20, 24]: 4 µg/mL; MIC [21]: 4 µg/mL
